As a reminder, the IC50 is the concentration needed to halve the response being measured.

T1 sequence (P62942 2-108 limits assumed, other chains not shown): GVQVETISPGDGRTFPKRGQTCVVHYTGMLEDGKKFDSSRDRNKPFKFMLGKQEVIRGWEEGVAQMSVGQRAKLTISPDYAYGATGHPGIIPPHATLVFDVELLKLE

The assay addresses T1, mTOR (UniProt P42346+P62942).
T1 construct: purchased Calbiochem CBA055
Nature of the assay: mTOR Assay Screening Protocol (K-LISA mTOR Activity Kit, inhibitor with FKBP12). The assay is classed as biochemical. The settings on record: mTOR Standard pre-incubated with inhibitor and FKBP12 (35-37 ug/ml); p70S6K-T389 phosphorylation ELISA, absorbance at 450 nm. On the procedure: mTOR Assay Screening Protocol
Kit: Calbiochem Cat. No. CBA055: K-LISA mTOR Activity Kit
The following table provides reagent preparation instructions to obtain the volume of Working Solutions (WS) required for 10 wells. Volumes can be scaled to process more samples and provide overage for pipetting error.
Reagent Volume (per 10-well strip) Composition: mTOR Substrate WS: 1 ml Dilution factor: 1:400 FKBP12: Sigma F5398 FK-Binding Protein human, recombinant, expressed in Escherichia coli
A. Protocol for mTOR Kinase Activity and Inhibitor Screening: 1. Remove the required number of strips from the Glutathione-Coated 96-Well Plate and place them in the 96-well frame. 2. Add 100 μl mTOR Substrate WS to each well and incubate for 1 h at room temperature. 3. When performing inhibitor screening/testing, pre-incubate 50 μl mTOR Standard (from step 2) with test inhibitor or wortmannin in a separate tube on ice for 20 min (for example 50 μl mTOR Standard with 1 μl Woltmannin, 50×). This pre-incubation can be carried out during the incubation in step 2. • For inhibitor testing: weigh out inhibitor and resuspend in DMSO to a concentration of 5 mM prior to addition to assay • Test concentrations for inhibitors in assay ranged from 10 uM-0.0048 uM (final concentrations) • Inhibitor reaction contained: mTOR Standard, inhibitor (at indicated concentration) and FKBP12 (at 35-37 ug/ml) • Dilutions of inhibitors made in TBS • Controls for assay include: mTOR Standard only, mTOR Substrate only (blank), FKBP12+mTOR Standard (no inhibitor), inhibitor compound+mTOR Standard (no FKBP12), 4. Aspirate contents of the wells and wash each well of the Glutathione-Coated 96-Well Plate with 200 μl TBS. Empty the contents of the wells into the sink and dry the wells by tapping the inverted plate on paper towels. Repeat for a total of 3 washes. 5. Add the following components to each well in the specified order: […]
mTOR Standard or mTOR Sample* (diluted to assay range with phosphate-free buffer or water): 50 μl 2× Kinase Assay Buffer WS: 50 μl
*Pre-incubated with inhibitor in step 3 or without inhibitor 6. Cover the plate with the Plate Sealer, mix with a plate shaker or equivalent for 30 seconds, and incubate for 30 minutes at 30° C. 7. Stop the kinase reaction by adding 10 μl Kinase Stop Solution to each well. (Reaction may also be stopped simply by discarding the contents of the wells). 8. Aspirate the contents of each well and wash with 200 μl Plate Wash (1×). Gently agitate the plate using a plate shaker or equivalent for 5 min. Empty the contents of the wells into the sink and dry the wells by tapping the inverted plate on paper towels. Wash the plate 2 more times without shaking the plate. 9. Add 100 μl Anti-p70S6K-T389 WS to each well, cover the plate with the Plate Sealer, and incubate 1 h at room temperature. 10. Wash the plate 4 times as outlined in step 8 without shaking the plate. 11. Add 100 μl HRP-Antibody Conjugate WS to each well, cover the plate with the Plate Sealer, and incubate 1 h at room temperature. 12. Wash the plate as outlined in step 10. 13. Add 100 μl TMB Substrate to each well, cover the plate with the Plate Sealer, and incubate 5-20 min at room temperature. 14. […] 15. Analyze data using Microsoft Excel and GraphPad Prism software.
For orientation: An ELISA detects its analyte on a solid surface through an enzyme-linked reagent.
`CO[C@H]1C[C@@H]2CC[C@@H](C)[C@@](O)(O2)C(=O)C(=O)N2CCCC[C@H]2C(=O)O[C@H]([C@H](C)C[C@@H]2CC[C@@H](OC(=O)CN3CCC(O)CC3)[C@H](OC)C2)CC(=O)[C@H](C)/C=C(\C)[C@@H](O)[C@@H](OC)C(=O)[C@H](C)C[C@H](C)/C=C/C=C/C=C/1C` [Example 8, 42-O-[2-(4-Hydroxypiperidin-1-yl)acetyl]-rapamycin] gave an IC50 of 70 nM. This lies in the double-digit nanomolar range.
In the case of `CO[C@H]1C[C@@H]2CC[C@@H](C)[C@@](O)(O2)C(=O)C(=O)N2CCCC[C@H]2C(=O)O[C@H]([C@H](C)C[C@@H]2CC[C@@H](OC[Si](C)(C)C)[C@H](OC)C2)CC(=O)[C@H](C)/C=C(\C)[C@@H](O)[C@@H](OC)C(=O)[C@H](C)C[C@H](C)/C=C/C=C/C=C/1C` [Example 11, 42-O-[Trimethylsilyl-methyl]-rapamycin], half-maximal inhibition (IC50) was put at 2300 nM.
The compound `CO[C@H]1C[C@@H]2CC[C@@H](C)[C@@](O)(O2)C(=O)C(=O)N2CCCC[C@H]2C(=O)O[C@H]([C@H](C)C[C@@H]2CC[C@@H](OCCCS(=O)(=O)N3CCOCC3)[C@H](OC)C2)CC(=O)[C@H](C)/C=C(\C)[C@@H](O)[C@@H](OC)C(=O)[C@H](C)C[C@H](C)/C=C/C=C/C=C/1C` [Example 17, 42-O-[3-(Morpholinosulfonyl)propyl]-rapamycin] yielded an IC50 of 140 nM.
Turning to `CO[C@H]1C[C@@H]2CC[C@@H](C)[C@@](O)(O2)C(=O)C(=O)N2CCCC[C@H]2C(=O)O[C@H]([C@H](C)C[C@@H]2CC[C@@H](OC(=O)NS(=O)(=O)Nc3ccc(O)cc3)[C@H](OC)C2)CC(=O)[C@H](C)/C=C(\C)[C@@H](O)[C@@H](OC)C(=O)[C@H](C)C[C@H](C)/C=C/C=C/C=C/1C` [Example 5, 42-O-[4-Hydroxyanilinsulfonylcarbamyl]-rapamycin], the half-maximal inhibitory concentration (IC50) is 1 nM.
As for `CO[C@H]1C[C@@H]2CC[C@@H](C)[C@@](O)(O2)C(=O)C(=O)N2CCCC[C@H]2C(=O)O[C@H]([C@H](C)C[C@@H]2CC[C@@H](OC(=O)NS(=O)(=O)N(C)C)[C@H](OC)C2)CC(=O)[C@H](C)/C=C(\C)[C@@H](O)[C@@H](OC)C(=O)[C@H](C)C[C@H](C)/C=C/C=C/C=C/1C` [Example 2, 42-O-[Dimethylaminosulfonylcarbamyl]-rapamycin], half-maximal inhibition (IC50) required 30 nM.
For `CO[C@H]1C[C@@H]2CC[C@@H](C)[C@@](O)(O2)C(=O)C(=O)N2CCCC[C@H]2C(=O)O[C@H]([C@H](C)C[C@@H]2CC[C@@H](OC(=O)CN3CCC(CCO)CC3)[C@H](OC)C2)CC(=O)[C@H](C)/C=C(\C)[C@@H](O)[C@@H](OC)C(=O)[C@H](C)C[C@H](C)/C=C/C=C/C=C/1C` [Example 13, 42-O-[2-(4-(2-Hydroxyethyl)piperidin-1-yl)acetyl]rapamycin] the value was 70 nM; for `CO[C@H]1C[C@@H]2CC[C@@H](C)[C@@](O)(O2)C(=O)C(=O)N2CCCC[C@H]2C(=O)O[C@H]([C@H](C)C[C@@H]2CC[C@@H](OC(=O)NCCN3CCOCC3)[C@H](OC)C2)CC(=O)[C@H](C)/C=C(\C)[C@@H](O)[C@@H](OC)C(=O)[C@H](C)C[C@H](C)/C=C/C=C/C=C/1C` [Example 16, 42-O-(2-Morpholinoethylaminocarbonyl)-rapamycin], 300 nM; for `CO[C@H]1C[C@@H]2CC[C@@H](C)[C@@](O)(O2)C(=O)C(=O)N2CCCC[C@H]2C(=O)O[C@H]([C@H](C)C[C@@H]2CC[C@@H](OC(=O)NS(=O)(=O)N3CCOCC3)[C@H](OC)C2)CC(=O)[C@H](C)/C=C(\C)[C@@H](O)[C@@H](OC)C(=O)[C@H](C)C[C@H](C)/C=C/C=C/C=C/1C` [Example 1, 42-O-[Morpholinosulfonylcarbamyl]-rapamycin], 10 nM.
As to `CO[C@H]1C[C@@H]2CC[C@@H](C)[C@@](O)(O2)C(=O)C(=O)N2CCCC[C@H]2C(=O)O[C@H]([C@H](C)C[C@@H]2CC[C@@H](OC(=O)NS(=O)(=O)N(CCO)CCO)[C@H](OC)C2)CC(=O)[C@H](C)/C=C(\C)[C@@H](O)[C@@H](OC)C(=O)[C@H](C)C[C@H](C)/C=C/C=C/C=C/1C` [Example 3, 42-O—[N,N-Bis(2-hydroxyethyl)aminosulfonylcarbamyl]-rapamycin], half-maximal inhibition (IC50) required 110 nM. Against the preceding compound, the IC50 is about 11-fold higher.
Consider `CO[C@H]1C[C@@H]2CC[C@@H](C)[C@@](O)(O2)C(=O)C(=O)N2CCCC[C@H]2C(=O)O[C@H]([C@H](C)C[C@@H]2CC[C@@H](OC(=O)CN(CCO)CCO)[C@H](OC)C2)CC(=O)[C@H](C)/C=C(\C)[C@@H](O)[C@@H](OC)C(=O)[C@H](C)C[C@H](C)/C=C/C=C/C=C/1C` [Example 14, 42-O-[2-(Bis(2-hydroxyethyl)amino)acetyl]-rapamycin], for which the midpoint of inhibition, the IC50, lay at 240 nM. This IC50 is about 2.2-fold higher than that of the compound before.
Then `CO[C@H]1C[C@@H]2CC[C@@H](C)[C@@](O)(O2)C(=O)C(=O)N2CCCC[C@H]2C(=O)O[C@H]([C@H](C)C[C@@H]2CC[C@@H](OCCOC[Si](C)(C)C)[C@H](OC)C2)CC(=O)[C@H](C)/C=C(\C)[C@@H](O)[C@@H](OC)C(=O)[C@H](C)C[C@H](C)/C=C/C=C/C=C/1C` [Example 12, 42-O-[2-(Trimethylsilan-methoxy)-ethyl]-rapamycin], with 30 nM; and `CO[C@H]1C[C@@H]2CC[C@@H](C)[C@@](O)(O2)C(=O)C(=O)N2CCCC[C@H]2C(=O)O[C@H]([C@H](C)C[C@@H]2CC[C@@H](OC(=O)N3CCC(O)CC3)[C@H](OC)C2)CC(=O)[C@H](C)/C=C(\C)[C@@H](O)[C@@H](OC)C(=O)[C@H](C)C[C@H](C)/C=C/C=C/C=C/1C` [Example 15], with 210 nM; and `CO[C@H]1C[C@@H]2CC[C@@H](C)[C@@](O)(O2)C(=O)C(=O)N2CCCC[C@H]2C(=O)O[C@H]([C@H](C)C[C@@H]2CC[C@@H](OC(=O)N3CCN(C)CC3)[C@H](OC)C2)CC(=O)[C@H](C)/C=C(\C)[C@@H](O)[C@@H](OC)C(=O)[C@H](C)C[C@H](C)/C=C/C=C/C=C/1C` [Example 6, 42-O-[4-Methylpiperazine-1-carboxy]-rapamycin], with 2500 nM.
As to `CO[C@H]1C[C@@H]2CC[C@@H](C)[C@@](O)(O2)C(=O)C(=O)N2CCCC[C@H]2C(=O)O[C@H]([C@H](C)C[C@@H]2CC[C@@H](OC(=O)NS(=O)(=O)N3CC[C@@H](O)C3)[C@H](OC)C2)CC(=O)[C@H](C)/C=C(\C)[C@@H](O)[C@@H](OC)C(=O)[C@H](C)C[C@H](C)/C=C/C=C/C=C/1C` [Example 4, 42-O—[(R)-3-hydroxypyrrolidin-1-ylsulfonylcarbamyl]-rapamyein], 10 nM corresponded to half-maximal inhibition (IC50).
